Results on 1 molecule are retold here after article PMC10527014 (Antiviral research, 2023).

For the data set, the system named is RD. The data set is described as follows: Cytotoxicity. The data set is classed as cell-based, human. The note with it: read-out: 50% Cytotoxic concentration CC50, line of ma-EV-D68.

On to `Cc1cc(-c2noc(C(F)(F)F)n2)ccc1OCCCc1cc(C(=O)N(C)C)no1` [compound 11526092, 3-(3-methyl-4-(3-(3-N,N-dimethylcarbamoyl-isoxazol-5-yl)propoxy)phenyl)-5-trifluoromethyl-1,2,4-oxadiazole], for which the CC50 came to 9.4 µM.
